These results are taken from a melting point compilation (Tetko et al.; mined from patent text by program, amines drawn as free bases though some values may be those of a salt).

As usually defined, the melting point is the temperature, or range, at which the solid turns liquid.

`CCON=C(C(C)=NO)c1ccc(OC[Si](C)(C)c2ccc(F)cc2)cc1` returned a melting point of 100 to 102 °C.

`Cc1noc(NS(=O)(=O)c2ccccc2-c2ccc(-c3ncco3)cc2CC(=O)N(C)C)c1C` gave a melting point of 89 to 96 °C.

Regarding `COc1cc(CC(=O)CCNCCOc2ccc(C(=O)O)cc2OC)ccc1NC(=O)Nc1ccccc1C`, the melting point lay in the range of 115 to 118 °C.

In turn, `S=C(Cc1ccc(Cl)cc1)N1CCCCC1` returned a melting point of 82.5 to 83.5 °C.

For `COc1ccc2c(=O)cc(-c3nc4ccccc4[nH]3)oc2c1`, the melting point is 201 to 203 °C.

`COC(=O)c1cccc2[nH]c(=O)c(-c3csc(-c4ccncc4)n3)cc12` showed a melting point above 250 °C.

`N#Cc1cnc2sc(I)cc2c1Nc1cccc2cc[nH]c12` displayed a melting point above 245 °C.

In turn, `CCN(CC)Cc1cccc(-c2cc(OCc3ccccc3)c3cc(OC)ccc3n2)c1` gave a melting point of 89.2 to 89.5 °C.

In the case of `Cc1c(C)c2c(c(C)c1N)CC(C)(CN1CCC(c3ccccc3)CC1)O2` (stereo unspecified), the melting point lay within 112 to 113 °C.

`CC1(CNc2ccccc2)SC2C(NC(=O)Cc3ccccc3)C(=O)N2C1C(=O)OCC(Cl)(Cl)Cl` (stereo unspecified) displayed a melting point of 148 to 149 °C.

With `N#CC1=C2C(=NC1=O)c1c(Sc3ccc(Br)cc3)ccc3c(Sc4ccc(Br)cc4)ccc2c13`, the melting point was in the range of 262 to 263 °C.

For `CCc1cc2ccccc2c(CNC(=O)c2cc(OC)c(OC)c(OC)c2)n1`, the melting point lay in the range of 175 to 176 °C.

With `NCc1ccc(-c2ccccc2-c2nnn[nH]2)cc1`, the melting point is above 260 °C.

`CC(C)(C)OC(=O)C[C@H](NC(=O)CNC(=O)c1csc(NC(=O)NCc2ccccn2)n1)C(=O)NCc1ccccn1`: the melting point came to 112 °C.

As for `CCOC(=O)C1=C(c2ccc(-n3c(C)nc4cnccc43)cc2)NC(C)=C(C(=O)OCCC#N)C1c1ccccc1Cl` (stereo unspecified), the melting point lay within 177 to 179 °C.

`CCCCNc1cc(C(=O)OCC#N)cc(S(N)(=O)=O)c1Oc1ccccc1`: the melting point lay in the range of 159 to 161 °C.

With `CC(C)(Cc1ccc(F)cc1)NC(=O)Nc1ccccc1CCc1cc(C(C)(C)C)c(O)c(C(C)(C)C)c1`, the melting point worked out at 151 °C.

For the compound `C(=C\c1nc2ccccc2n1-c1ccncc1)/c1ccccc1`, the melting point was in the range of 168 to 169 °C.

With `Cn1c(C(F)(F)F)nn(-c2ccccc2[N+](=O)[O-])c1=O`, the melting point is 83 °C.

For the compound `CCOC(=O)CCCCCCC1C(=O)NC(=O)N1C1(O)CCCCC1` (stereo unspecified), the melting point lay within 62 to 63 °C.

`COC(C)(C)C(=O)O[C@H]1C[C@H](O)C=C2C=C[C@H](C)[C@H](CC[C@@H]3C[C@@H](O)CC(=O)O3)[C@H]21`: the melting point is 150 to 152 °C.

Consider `CCOC(=O)C(Cc1c[nH]c2c(C(=O)c3ccc(Cl)cc3)cccc12)C(=O)OCC`, for which the melting point is 197 to 201 °C.

In the case of `CC(C)(C(N)=O)c1cccc(Cn2ccnc2)c1`, the melting point was 79 to 82 °C.

Regarding `O=c1ccc2c(-n3ccnc3)nccc2[nH]1`, the melting point fell in the range of 291 to 292 °C.

With `Cc1c(NC(=O)c2ccc(OC[C@@H]3CCCO3)cc2)ccc2cc(CNCC(C)(C)C)n(C)c12`, the melting point came out at 201 °C.

For the compound `CCOC(=O)C1=Cc2cc(-c3ccc(CC)cc3)ccc2OCC1`, the melting point was in the range of 81 to 83 °C.

On to `COC(=O)/C(=C/c1cccc(C=O)c1)NC(=O)OCc1ccccc1`, for which the melting point lay within 77 to 83 °C.

On to `Nc1nc(NCCCCCCNS(=O)(=O)c2cccc3ccccc23)nc2ccccc12`, for which the melting point fell in the range of 98 to 101 °C.

Compound `Cc1ccc(-c2[nH]nc3c2C(=O)c2c(NC(N)=O)cccc2-3)s1` showed a melting point above 280 °C.

In the case of `O=C(Nc1ccccc1Cl)Oc1ccc2c(c1)CCCN2Cc1ccccc1`, the melting point was 130 °C.

In the case of `CC(=O)NCCCCc1ccc(C(=O)C(C)Cl)cc1` (stereo unspecified), the melting point lay in the range of 66 to 67 °C.

`CCOC(=O)C(=O)NNC(=O)c1cc2sc(C)c(N(C)S(=O)(=O)c3cccs3)c2[nH]1`: the melting point is 135 °C.

Consider `CCOC(=O)c1c(O)c2ccc(Cl)cc2c(=O)n1C`, for which the melting point fell in the range of 109 to 110 °C.

As to `Cc1ccc(-c2n[nH]c3ccccc23)cc1`, the melting point lay within 106 to 107 °C.

For `COc1cc(OCc2ccccn2)ccc1/C=C/c1cc(/C=C/c2ccc3c(c2)OCCO3)n[nH]1`, the melting point lay in the range of 153 to 155 °C.

In the case of `CON1CCC2(CC1)NC(=O)C(c1cc(C)ccc1C)=C2O`, the melting point was 176 to 177 °C.

Compound `CCOc1ccc(C2=NN(c3ccc(C(=O)N4CCS(=O)(=O)CC4)cc3)C(=O)[C@H]3CC=CC[C@@H]23)cc1OCC` (relative stereo) yielded a melting point of 186 to 187 °C.

For `COC(=O)[C@H](O)[C@@H](NS(=O)(=O)c1ccc([N+](=O)[O-])cc1)c1ccccc1`, the melting point was in the range of 187 to 189 °C.

`COc1ccccc1N1CCN(CCCn2c(=O)[nH]c3cscc3c2=O)CC1` registered a melting point of 187 to 188 °C.

Regarding `COc1cc2c(c(-c3cccc(Cl)c3Cl)c1)OC(CN)C2` (stereo unspecified), the melting point lay within 159 to 161 °C.

In turn, `CCCCc1oc2ccccc2c1C(=O)Nc1ccc2c(Br)c(OCC#N)ccc2c1` came in with a melting point of 155 to 159 °C.

`CCn1c(C)c(C(c2ccco2)S(=O)(=O)c2ccc(C)cc2)c2ccccc21` (stereo unspecified) returned a melting point of 99.8 to 105 °C.

Turning to `CCN(CC)c1nc(C#N)c(C#N)nc1Cc1ccccc1`, the melting point was 73 to 74 °C.

`CCCc1nn(-c2ccc(C(F)(F)F)cn2)cc1CO` gave a melting point of 120 to 121 °C.

As for `O=C(NCC(=O)N1[C@@H](c2ccccc2O)CC[C@H]1c1ccccc1)Nc1cccc(C(=O)O)c1` (racemic), the melting point came to 160 °C.

On to `CCCCc1nn2c(-c3ccccc3)cnc2n1Cc1ccc(-c2ccccc2-c2nnn[nH]2)cc1`, for which the melting point was above 70 °C.

`COC(=O)c1nc2n(c1C)-c1ccc(Cl)cc1C(c1ccccc1F)=NC2` registered a melting point of 137 to 138 °C.

In turn, `CN1CCN(C(=O)OC2c3ccccc3C(=O)N2c2ccc3ncccc3n2)CC1` (stereo unspecified) yielded a melting point of 170 to 171 °C.

As for `COC(=O)C=Cc1ccc2c(c1)OCCO2`, the melting point fell in the range of 66 to 68 °C.

`COc1ccc(Sc2nn(-c3ccc(OC)cc3)c(=O)c(C#N)c2C)cc1` had a melting point of 188 to 190 °C.

As to `Cc1oc(-c2ccccc2)nc1COc1cccc(CSc2ccc(CC(=O)O)cc2Cl)c1`, the melting point was in the range of 150 to 151 °C.

On to `O=C(Nc1ccccc1N1CCc2ccccc21)C1CC1`, for which the melting point lay within 83 to 85 °C.

The compound `COC(=O)Cc1c(O)ncnc1O` showed a melting point above 200 °C.

`Cc1nc(I)cn1-c1ccc(F)cc1`: the melting point was 151 °C.

On to `COc1ccc(F)cc1Oc1c(NS(=O)(=O)c2ccc(C(C)(C)C)cc2)ncnc1OC[C@@H]1COC(C)(C)O1`, for which the melting point is above 86 °C.

As for `CSc1nc(F)cc2nnc(SCc3ccccc3)n12`, the melting point lay within 74 to 77 °C.

`O=C(N[C@H]1CCN(CCc2ccc(F)cc2)C1)C(c1ccccc1F)c1ccccc1F` came in with a melting point of 107 to 108 °C.

Take `COc1cc2[nH]c(C)c(C(=O)C(=O)N3CCC(Oc4ccc(C(F)(F)F)cc4)CC3)c2cc1OC`: the melting point fell in the range of 211 to 213 °C.

`CNC1=Nc2ccc(Cl)cc2N(c2ccccc2)C(=O)C1` displayed a melting point of 215 to 217 °C.

For `C=C=Cn1c(C)c(C)c2cnnc(OCc3ccccc3)c21`, the melting point was 77 to 79 °C.

`CC(C)(CO)Nc1nc(-c2ccc(Br)cc2)cs1` gave a melting point of 151 to 153 °C.

Compound `O=C(O)Cn1c(=O)c(=O)[nH]c2ccc3ccc(-n4cccc4CNC(=O)c4ccccc4)cc3c21` came in with a melting point above 180 °C.

Compound `CNC(=O)CN1CCc2cc(Nc3ncc(Cl)c(Nc4ccccc4C(=O)NC)n3)c(OC)cc2CC1` came in with a melting point of 200 to 216 °C.

Take `CSc1cc2c(cc1C(F)(F)F)N(C(=O)Nc1cccc(C(=O)NCCN3CCOCC3)c1)CC2`: the melting point was 198 to 200 °C.

On to `CCN(CC)S(=O)(=O)c1cc2[nH]c(=O)c(=O)[nH]c2cc1[N+](=O)[O-]`, for which the melting point is above 360 °C.

Turning to `O=C1COc2ccc(C3=Nc4cc(Cl)ccc4SC3c3ccccc3)cc2N1` (stereo unspecified), the melting point was in the range of 234 to 236 °C.

Consider `CN1Cc2c(C(N)=O)ncn2-c2ccsc2C1=O`, for which the melting point lay within 294 to 296 °C.

`C#CCNC(=S)NC1CCC(=O)c2sccc21` (stereo unspecified) had a melting point of 130 to 136 °C.

In turn, `COC(=O)CC=CC=Cc1ccccc1` gave a melting point of 71 °C.

In turn, `CCCCc1ncc(/C=C2\C(=O)NC(=O)N2c2ccccc2)n1Cc1ccc(C(=O)O)cc1` displayed a melting point of 286 to 290 °C.

The compound `Cc1cc(O)cc(C)c1-c1cccc2c1Oc1ccccc1S2` gave a melting point of 116 °C.

`Nc1cc(F)c(C2CCSCC2)c(F)c1` had a melting point of 118 to 119 °C.

The compound `CSCC(C)(C)NC(=O)c1c(NC(=O)c2cc(C(F)(F)F)nn2-c2ncccc2Cl)c(Cl)cc2cn[nH]c12` yielded a melting point of 100 to 105 °C.

Consider `O=C(O)c1csc(CO)c1`, for which the melting point was found to be 149 °C.

`CC(=O)OCC1CC(OC(C)=O)C(n2cc(C(I)=CI)c(=O)[nH]c2=O)O1` (stereo unspecified) had a melting point of 75 to 77 °C.

The compound `COc1ccc(C2=NN(C3CCNCC3)C(=O)C(C)(C)C2)cc1OC` gave a melting point of 126 to 128 °C.

`CCCCCCc1oc(C=Cc2ccccc2)nc1CC(=O)O` registered a melting point of 107 to 108 °C.

Consider `CCC(=O)NCCC1CCc2cc(F)c(O)cc21` (stereo unspecified), for which the melting point is 93 to 96 °C.

Consider `CC1(CCOc2ccc(/C=C/C(=O)O)c(Oc3ncc(C(F)(F)F)cc3Cl)c2)OCCO1`, for which the melting point was in the range of 144 to 146 °C.

The compound `CC(=O)OC(OC(C)=O)c1ccc2occ(C#N)c(=O)c2c1` yielded a melting point of 185 to 186 °C.

`CCn1cc(-c2ccccc2)c(=O)c(-c2ccccc2)n1` gave a melting point of 124 to 125 °C.

`Cn1ccnc1Sc1ccc(Nc2c(C#N)cnc3cc(-c4csc(CN5CCOCC5)c4)ccc23)cc1Cl`: the melting point lay within 110 to 113 °C.

In the case of `O=C(O)c1ccc(OCC2CCCCC2)cc1`, the melting point was in the range of 209 to 210 °C.

`Cc1cccc(NC(=O)NCC(=O)N2[C@@H](C(=O)OC(C)(C)C)CC[C@H]2c2ccccc2)c1` (racemic) had a melting point of 156 °C.

As for `Cc1ccsc1C=C1CCc2cc(OCCc3c[nH]cn3)ccc2C1=O`, the melting point was 191 to 193 °C.

`CCCn1nc(SCCCCC(=O)O)c(C(=O)O)c1Cc1cc2c(cc1Cl)OCO2`: the melting point came out at 185 °C.
